According to patent EP3064205A1, “Therapeutic use of isomeric forms of 2-(4-chlorophenyl)quinolin-4-yl)(piperidin-2-yl)methanol” (Glionova AB, priority 2015, dated 2016):
Where two headings read alike, the source gives them in different places.

Columns and labels:
Assay in all cases: 3D clonogenic assay (PDX)
Type in all cases: cell-based, human
[1] = system: LXFA 526; settings: LXFA 526, Lung Adeno; for IC50: Homo sapiens
Method: (§1) The anti-tumor efficacy of S1 in the patient-derived tumor xenograft (PDX) tumor panel was assessed, where the efficacy of S1 in PDX tumor panel in the 96-well format, in 10 concentrations in duplicate was performed. Colony formation of tumor cell suspensions in a soft-agar matrix was observed and quantified. The output is IC50 values and dose response-relationships based on number of colonies in control and treatment wells, as identified by an automated image analysis algorithm. Stock solution of S1 was prepared in 100% DMSO at 10 mM concentration (stored at -20°C) and reused for each experiment. Compound final test concentrations: Dilution series ½ i.e.: 50µM, 15, 5, 1.5, 0.5, 0.15, 0.05, 0.015, 0.005 and 0.0015.
(§2) Tumor xenografts (also referred to as patient-derived tumor xenografts) were passaged as subcutaneous xenografts in NMRI nu/nu mice. Tumor xenograft were removed from mice under sterile conditions, mechanically disaggregated and subsequently incubated with an enzyme cocktail consisting of collagenase type IV (41 U/mL), DNase I (125 U/mL), hyaluronidase type III (100 U/mL) and dispase II (1.0 U/mL) in RPMI 1640 medium at 37°C for 60 - 120 minutes. Cells were passed through sieves of 100 µm and 40 µm mesh size and washed with RPMI 1640 medium. The percentage of viable cells was determined in a Neubauer-hemocytometer using trypan blue exclusion. Aliquots of the cells were frozen down, and stored in liquid nitrogen.
(§3) The clonogenic assay test was carried out in 96 well plate format. For each test a frozen aliquot of tumor cells prepared from tumor xenografts was thawed and assay plates were prepared as follows: each test well contained 3 layers of equal volume, 2 layers of semi-solid medium (bottom and top layer), and one layer of medium supernatant, with or without test compound. The bottom layer consisted of 0.05 mL/well Iscove's Modified Dulbecco's Medium (Invitrogen), supplemented with 20% (v/v) fetal calf serum (Sigma), 0.01% (w/v) gentamicin (Invitrogen) and 0.75% (w/v) agar (BD Biosciences). Tumor cells were added to 0.05 mL of the same culture medium supplemented with 0.4% (w/v) agar and plated onto the bottom layer. After 24 h, test compounds were added after serial dilution in DMSO and transfer in cell culture medium, and left on the cells for the duration of the experiment (continuous exposure, 0.05 mL drug overlay). Every dish included six untreated control wells and drug-treated groups in duplicate at 10 concentrations. Cultures were incubated at 37 °C and 7.5% CO2 in a humidified atmosphere for 8 to 13 days and monitored closely for colony growth using an inverted microscope. Within this period, ex vivo tumor growth lead to the formation of colonies with a diameter of >50 µm. At the time of maximum colony formation, counts were performed with an automatic image analysis system. 24 h prior to evaluation, vital colonies were stained with a sterile aqueous solution of 2-(4-iodophenyl)-3-(4-nitrophenyl)-5-phenyltetrazolium chloride (1 mg/mL, 100 µL/well). Sigmoidal concentration-response curves were fitted to the data points obtained for each tumor model using 4 parameter non-linear curve fit (Oncotest Warehouse Software). IC50 values are reported as relative IC50 values, being the concentration of test compound that give a response (inhibition of colony formation/viability) half way between the top and bottom plateau of the sigmoidal concentration-response curve (inflection point of the curve), or as absolute IC50 values, being the concentration of test compound at the intersection of the concentration-response curves with T/C = 50%. For calculation of mean IC50 values the geometric mean was used. Results are presented as mean graph plots or heat maps (individual IC50 values relative to the geometric mean IC50 value) over all cell lines as tested.

[2] = system: OVXF 1353; settings: OVXF 1353, Ovarian; for IC50: Homo sapiens
Method: as §1, §2, §3

[3] = system: CXF 975; settings: CXF 975, Colorectal; for IC50: Homo sapiens
Method: as §1, §2, §3

[4] = system: LXFA 629; settings: LXFA 629, Lung Adeno; for IC50: Homo sapiens
Method: as §1, §2, §3

[5] = system: BXF 1036; settings: BXF 1036, Bladder; for IC50: Homo sapiens
Method: as §1, §2, §3

[6] = system: LXFA 623; settings: LXFA 623, Lung Adeno; for IC50: Homo sapiens
Method: as §1, §2, §3

[7] = system: BXF 439; settings: BXF 439, Bladder; for IC50: Homo sapiens
Method: as §1, §2, §3

[8] = system: GXF 97; settings: GXF 97, Gastric; for IC50: Homo sapiens
Method: as §1, §2, §3

[9] = system: LXFL 1674; settings: LXFL 1674, Lung Large Cell; for IC50: Homo sapiens
Method: as §1, §2, §3

[10] = system: LXFL 1072; settings: LXFL 1072, Lung Large Cell; for IC50: Homo sapiens
Method: as §1, §2, §3

[11] = system: CXF 1103; settings: CXF 1103, Colorectal; for IC50: Homo sapiens, CXF1103
Method: as §1, §2, §3

[12] = system: MEXF 1765; settings: MEXF 1765, Melanoma; for IC50: Homo sapiens
Method: as §1, §2, §3

For `O[C@H](c1cc(-c2ccc(Cl)cc2)nc2ccccc12)[C@@H]1CCCCN1` [S1, (R)-(2-(4-chlorophenyl)quinolin-4-yl)((S)-piperidin-2-yl)methanol], the IC50 ([1]; read-out: abs. IC50) was 3.23 µM, the IC50 ([1]; read-out: rel. IC50) was 2.91 µM and the “b (bottom plateau of concentration-effect curve)” value [1] was 10. For the same compound, the “t (top plateau of concentration-effect curve)” value [1] was 96, the IC50 ([2]; read-out: abs. IC50) was 4.91 µM and the IC50 ([2]; read-out: rel. IC50) was 4.72 µM. The “b (bottom plateau of concentration-effect curve)” value [2] was 23, the “t (top plateau of concentration-effect curve)” value [2] was 101 and the “b (bottom plateau of concentration-effect curve)” value [3] was 19. The “t (top plateau of concentration-effect curve)” value [3] was 105, the IC50 ([3]; read-out: abs. IC50) was 8.75 µM and the IC50 ([3]; read-out: rel. IC50) was 8.62 µM. For the same compound, the IC50 ([4]; read-out: abs. IC50) was 9.09 µM, the IC50 ([4]; read-out: rel. IC50) was 8.85 µM and the “b (bottom plateau of concentration-effect curve)” value [4] was 26. The “t (top plateau of concentration-effect curve)” value [4] was 108, the “b (bottom plateau of concentration-effect curve)” value [5] was 30 and the “t (top plateau of concentration-effect curve)” value [5] was 95. The IC50 ([5]; read-out: abs. IC50) was 5.3 µM, the IC50 ([5]; read-out: rel. IC50) was 5 µM and the IC50 ([6]; read-out: abs. IC50) was 4.63 µM. The IC50 ([6]; read-out: rel. IC50) was 4.62 µM, the “b (bottom plateau of concentration-effect curve)” value [6] was 10 and the “t (top plateau of concentration-effect curve)” value [6] was 92. The “b (bottom plateau of concentration-effect curve)” value [7] was 34, the “t (top plateau of concentration-effect curve)” value [7] was 95 and the IC50 ([7]; read-out: abs. IC50) was 14 µM. The IC50 ([7]; read-out: rel. IC50) was 12.8 µM, the “b (bottom plateau of concentration-effect curve)” value [8] was 20 and the “t (top plateau of concentration-effect curve)” value [8] was 97. For the same compound, the IC50 ([8]; read-out: abs. IC50) was 6.21 µM, the IC50 ([8]; read-out: rel. IC50) was 5.71 µM and the IC50 ([9]; read-out: abs. IC50) was 6.68 µM. For the same compound, the IC50 ([9]; read-out: rel. IC50) was 6.59 µM, the “b (bottom plateau of concentration-effect curve)” value [9] was 9 and the “t (top plateau of concentration-effect curve)” value [9] was 93. For the same compound, the IC50 ([10]; read-out: abs. IC50) was 7.6 µM, the IC50 ([10]; read-out: rel. IC50) was 7.58 µM and the “b (bottom plateau of concentration-effect curve)” value [10] was 0. For the same compound, the “t (top plateau of concentration-effect curve)” value [10] was 101, the “b (bottom plateau of concentration-effect curve)” value [11] was 47 and the “t (top plateau of concentration-effect curve)” value [11] was 99. For the same compound, the IC50 ([11]; read-out: abs. IC50) was 11.5 µM, the IC50 ([11]; read-out: rel. IC50) was 6.47 µM and the IC50 ([12]; read-out: abs. IC50) was 8.58 µM. The IC50 ([12]; read-out: rel. IC50) was 8.53 µM, the “b (bottom plateau of concentration-effect curve)” value [12] was 23 and the “t (top plateau of concentration-effect curve)” value [12] was 84.
